Numbered stars: 1 amine (or outer) side, 2 acyl side, 3 side chain; on linkers, the order of the positions; unused ones are H or OH. Bridge positions count the residues as written; N and C are the ends. Square brackets hold non-standard residues; d marks the D form. Peptide text beside a SMILES is read from it. I, II: the chains in the order shown. Actinocin(9to1) = Cc1c2oc3c(C)ccc(C(=O)[*:1])c3nc-2c(C(=O)[*:2])c(N)c1=O; NMeV = CN[C@H](C(=O)O)C(C)C; Sar = CNCC(=O)O
Legend:
[1] = test system: C. elegans; assay: Lifespan extension of nematodes (C. elegans); type: in vivo; conditions: for Lifes pan ext. %: nematodes grown with compound at 50 micromolar; for Lifes pan ext. % / Lifespan %: mean lifespan versus control; for Lifespan extension (%): Table 2, versus untreated controls; for Lifespan extension (%) / Lifespan %: 50 micromolar
Experimental: Nematodes (C. elegans) were administered tri-phenyl telomerase-activating compounds presented in the following tables, and telomerase activity and/or expression was measured in terms of nematode lifespan extension. Nematodes were grown with the activators at 50 micromolar concentration, and the mean, maximum and half-life for Compound 68 and Compound 77, two representative molecules, was measured versus that of the control (FIG. 8). Values represent mean lifespan.
Survival of the C. elegans, a nematode that normally survives for 12-14 days, represents an acceptable model for studying life extension. Nematodes were administered tri-phenyl telomerase-activating compounds and their effect on the nematode lifespan extension was determined. Nematodes were grown with the activators at a concentration of 50 micromolar, and mean, maximum and half-life were measured in comparison with untreated controls. Lifespan increased by 13-43% (Table 2), and the median lifespan increased approximately 2-fold (from 12 days to 22 days, as shown in FIG. 8).

[2] = Solubility noted at synthesis; type: physicochemical
[3] = test system: embryos; assay: Prevention of camptothecin damage to embryo development in rats; type: in vivo, rat; conditions: embryos at days 14-15
Experimental: The ability of compounds of the present invention to prevent the damaging effects of drugs on embryonic development was examined in rats. Female rats were treated with camptothecin (CPT) (5 mg/kg), an anti-cancer drug, and then injected with Compound 68 (6 mg/kg) or vehicle (0.1%). Embryos were removed at days 14-15 of pregnancy and examined for damage.

[4] = test system: telomerase mRNA; assay: Northern blot of telomerase mRNA with hTERT probe; type: cell-based, human
Experimental: Experiments were also performed to determine the effect of compounds of the present invention on the telomerase mRNA level (including the full and spliced variant telo-mRNAs). Cells were treated with a single dose of […] Compound 68 for various intervals (1-24 h). Total RNA extracts were prepared, and equal RNA concentrations were analyzed by northern blotting with a specific hTERT probe. […] The increased expression of telomerase was specific since no effect on GAPDH mRNA was observed (lower panel).

[5] = test system: telomerase protein; assay: Western blot of telomerase protein level in treated glioblastoma cells; type: cell-based, human; conditions: 1 μM single dose
Experimental: The effect of compounds of the present invention on the level of telomerase protein and of long-term treatment of a single dose of Compound 68 on telomerase was tested by exposing cells for various intervals (3-24 h) to 1 μM of the compound and detecting telomerase protein level by western blot analysis with anti-telomerase antibody. […] A time-dependent increase in telomerase was observed, with activation peaking at […] of treatment, and then gradually decreasing.

[6] = test system: telomerase; assay: Activation of telomerase expression in rat endometrial cells after subcutaneous injection; type: in vivo; conditions: 6 mg/kg subcutaneously, 24 h
Experimental: Female rats in diestrus (the stage at which the epithelial layer in the rat endometrium undergoes degradation) were injected subcutaneously with 6 mg/kg of Compound 68, or with a vehicle. The rats were sacrificed 24 h later and endometrial sections were prepared from the uterine horns of treated and untreated rats and analyzed by histological procedures and by immunohistochemical staining Endometrial slices were stained by hematoxylin-eosin. […] In addition, morphologically, the endometrial tissue resembled the structure of the proliferating stages (proestrus and estrus) (FIG. 9A,B). Activation of telomerase expression in the endometrial cells of treated rats was examined by immunohistochemistry with anti-telomerase antibody (FIG. 9C-F). […] In addition, telomerase activity was measured in nuclear extracts derived from the endometrium of the various treatment groups. […] In some embodiments of the invention, the data support a role for the treatment of endometriosis with the compounds of this invention.

[7] = molecular target: telomerase (Homo sapiens, UniProt O14746); assay: Telomerase activity in RPE cells (quantitative telomerase detection kit, real time PCR); type: cell-based; set-up: endogenous in cells; host or cells: human retinal pigmented epithelial (RPE) cells; conditions: FIG. 7B
Sequence of telomerase (Homo sapiens, UniProt O14746) (O14746 whole entry): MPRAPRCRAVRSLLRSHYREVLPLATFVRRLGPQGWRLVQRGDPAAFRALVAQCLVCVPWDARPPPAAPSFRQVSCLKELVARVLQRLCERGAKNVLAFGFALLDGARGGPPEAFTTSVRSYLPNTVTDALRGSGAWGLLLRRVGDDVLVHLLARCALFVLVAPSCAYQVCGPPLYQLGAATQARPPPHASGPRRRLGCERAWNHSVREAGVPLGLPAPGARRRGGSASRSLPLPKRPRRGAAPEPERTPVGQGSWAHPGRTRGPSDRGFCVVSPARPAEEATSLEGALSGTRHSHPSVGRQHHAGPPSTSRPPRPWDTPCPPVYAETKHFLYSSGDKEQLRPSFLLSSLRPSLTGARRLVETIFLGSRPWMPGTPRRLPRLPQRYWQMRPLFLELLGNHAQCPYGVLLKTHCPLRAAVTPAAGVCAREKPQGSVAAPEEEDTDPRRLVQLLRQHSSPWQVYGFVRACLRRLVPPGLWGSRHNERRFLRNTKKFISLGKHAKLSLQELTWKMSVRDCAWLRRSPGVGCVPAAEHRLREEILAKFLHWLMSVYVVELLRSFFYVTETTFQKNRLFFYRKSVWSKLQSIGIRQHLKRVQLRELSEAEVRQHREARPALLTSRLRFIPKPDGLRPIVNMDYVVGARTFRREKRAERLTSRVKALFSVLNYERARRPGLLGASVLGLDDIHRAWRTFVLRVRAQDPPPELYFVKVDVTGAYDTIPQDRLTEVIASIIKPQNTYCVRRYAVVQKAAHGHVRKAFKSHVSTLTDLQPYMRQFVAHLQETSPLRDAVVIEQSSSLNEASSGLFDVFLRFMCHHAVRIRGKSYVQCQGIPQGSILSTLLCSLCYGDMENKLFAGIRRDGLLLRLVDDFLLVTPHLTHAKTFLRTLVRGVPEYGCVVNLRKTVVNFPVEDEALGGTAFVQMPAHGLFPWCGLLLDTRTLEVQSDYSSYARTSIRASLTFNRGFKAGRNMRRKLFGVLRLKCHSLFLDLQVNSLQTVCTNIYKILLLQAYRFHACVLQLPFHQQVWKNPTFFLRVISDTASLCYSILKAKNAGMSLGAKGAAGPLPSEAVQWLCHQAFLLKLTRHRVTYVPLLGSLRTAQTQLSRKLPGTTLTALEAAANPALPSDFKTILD
From the text: FIG. 7: A. The effect of compounds of the present invention on human retinal pigmented epithelial cells under oxidative stress. B. The effect of compounds on telomerase activity in RPE cells (measured by a quantitative telomerase detection kit-real time PCR).
Chronic exposure of human retinal pigmented epithelial (RPE) cells to oxidative stress predisposes them to the development of age-related macular degeneration (AMD). Human RPE cells were exposed to oxidative stress by treatment with H2O2 (1 mM) for 24 hours, and H2O2 (0.5 mM) for another 24 hours. The cells were then treated daily for two days with the indicated compounds in the absence of H2O2. Increased cell growth was observed as a consequence of treatment with the compounds (FIG. 7A). Telomerase activity was enhanced in RPE cells treated with compounds 68 and 79 by 30- and 50-fold, respectively (FIG. 7B).

CCOC(=O)COc1ccc(C(C)(c2ccc(OCC(=O)OCC)cc2)c2ccc(OCC(=O)OCC)cc2)cc1 [Compound 42]
Lifes pan ext. % [1]: −7%

CN1CCN(Cc2cc(C(C)(c3cc(CN4CCN(C)CC4)c(O)c(CN4CCN(C)CC4)c3)c3cc(CN4CCN(C)CC4)c(O)c(CN4CCN(C)CC4)c3)cc(CN3CCN(C)CC3)c2O)CC1 [Compound 78]
Lifespan extension (%) [1]: 36%
Lifespan % ([1]; table of scaffold drawing 36): 36%
solubility in ethanol ([2]; ethanol): Soluble
solubility in water ([2]; water): very good solubility

CC(c1ccc(O)cc1)(c1ccc(O)cc1)c1ccc(-c2cccnc2)cc1 [Compound 54]
Lifes pan ext. % [1]: 15%

CC(c1ccc(O)cc1)(c1ccc(O)cc1)c1ccc(-c2ccncc2)cc1 [Compound 53]
Lifes pan ext. % [1]: 13%

Brc1ccc(N(c2ccc(Br)cc2)c2ccc(Br)cc2)cc1 [Compound 66]
Lifespan % ([1]; table of scaffold drawing 35): 19%

COc1ccc(P(=O)(c2ccc(OC)cc2)c2ccc(OC)cc2)cc1 [Compound 63]
Lifespan % ([1]; table of scaffold drawing 35): 0%

Cc1ccc(P(c2ccc(C)cc2)c2ccc(C)cc2)cc1 [Compound 65]
Lifespan % ([1]; table of scaffold drawing 35): 42%

COc1c(Br)cc(C(C)(c2cc(Br)c(OC)c(Br)c2)c2cc(Br)c(OC)c(Br)c2)cc1Br [Compound 70]
Lifespan % ([1]; table of scaffold drawing 36): 41%

CC(c1ccc(O)c(Br)c1)(c1ccc(O)c(Br)c1)c1ccc(O)c(Br)c1 [Compound 69]
Lifespan % ([1]; table of scaffold drawing 36): −5%

COc1ccc(C(C)(c2ccc(OC)cc2)c2ccc(OC)cc2)cc1 [Compound 5]
Lifes pan ext. % [1]: 12%

COc1c(I)cc(C(C)(c2cc(I)c(OC)c(I)c2)c2cc(I)c(OC)c(I)c2)cc1I [Compound 73]
Lifespan % ([1]; table of scaffold drawing 36): −7%

CC(c1ccc(O)cc1)(c1ccc(O)cc1)c1ccc(O)cc1 [Compound 1]
Lifes pan ext. % [1]: 30%

CC(c1ccccc1)(c1ccccc1)c1ccccc1 [Compound 49]
Lifes pan ext. % [1]: 16%

COc1ccc(C(c2ccc(-c3c[nH]c4ccccc34)cc2)c2ccc(-c3c[nH]c4ccccc34)cc2)cc1 [Compound 50]
Lifes pan ext. % [1]: 4%

COc1ccc(C(C)(c2ccc(OC)c([N+](=O)[O-])c2)c2ccc(OC)c([N+](=O)[O-])c2)cc1[N+](=O)[O-] [Compound 72]
Lifespan % ([1]; table of scaffold drawing 36): 4%

c1ccc(P(c2ccccc2)c2ccccc2)cc1 [Compound 64]
Lifespan % ([1]; table of scaffold drawing 35): 19%

Oc1ccc(P(c2ccc(O)cc2)c2ccc(O)cc2)cc1 [Compound 60]
Lifespan % ([1]; table of scaffold drawing 35): −2%

COc1ccc(C(C)(c2ccc(-c3cccc4ccccc34)cc2)c2ccc(C3c4ccccc4-c4ccccc43)cc2)cc1 (centres unmarked) [Compound 31]
Lifes pan ext. % [1]: 23%

COc1ccc(P(c2ccc(OC)cc2)c2ccc(OC)cc2)cc1 [Compound 62]
Lifespan extension (%) [1]: 29%
Lifespan % ([1]; table of scaffold drawing 35): 29%

Cc1ccc(C(C)(c2ccccc2)c2ccccc2)cc1 [Compound 10]
Lifes pan ext. % [1]: −1%

CC[C@@]1(O)C(=O)OCc2c1cc1n(c2=O)Cc2cc3ccccc3nc2-1 [CPT, camptothecin, reference compound]
embryo development after CPT only ([3]; CPT 5 mg/kg plus vehicle): evidence of abnormal development

Cc1c2oc3c(C)ccc(C(=O)N[C@@H]4C(=O)N[C@H](C(C)C)C(=O)N5CCC[C@H]5C(=O)N(C)CC(=O)N(C)[C@@H](C(C)C)C(=O)O[C@@H]4C)c3nc-2c(C(=O)N[C@@H]2C(=O)N[C@H](C(C)C)C(=O)N3CCC[C@H]3C(=O)N(C)CC(=O)N(C)[C@@H](C(C)C)C(=O)O[C@@H]2C)c(N)c1=O [actinomycin D, reference compound] (I: T[dV]P[Sar][NMeV] / II: T[dV]P[Sar][NMeV]; ester I:1-I:C, II:1-II:C; linker I:N-II:N via Actinocin(9to1))
effect of addition during compound treatment on activation of telomerase expression ([4]; added for 3 h during treatment with Compound 68): abolished the activation of telomerase expression

CC(c1ccc(O)c([N+](=O)[O-])c1)(c1ccc(O)c([N+](=O)[O-])c1)c1ccc(O)c([N+](=O)[O-])c1 [Compound 71]
Lifespan % ([1]; table of scaffold drawing 36): 8%

CC(c1cc(Br)c(O)c(Br)c1)(c1cc(Br)c(O)c(Br)c1)c1cc(Br)c(O)c(Br)c1 [Compound 68, 1,1,1-tris(4-hydroxy-3,5-dibromo-phenyl)-ethane]
Lifespan extension (%) [1]: 13%
Lifespan % ([1]; table of scaffold drawing 36): 13%
time of peak telomerase activation [5]: 1 to 3 h
telomerase protein level ([5]; 3-24 h, western blot): increased telomerase protein level
level of telomerase compared to vehicle-treated cells after 24 h ([5]; 24 h): only slightly higher
level of telomerase full-length and splice variant mRNA, fold of control ([4]; single dose of 1 mM, 1-24 h): up to 4.5 fold
staining of telomerase in the endometrial tissue (immunohistochemistry) [6]: significant increase
degradation of the endometrial epithelial layer ([6]; female rats in diestrus): prevented the degradation of the endometrial epithelial layer
embryo development after CPT plus compound ([3]; CPT 5 mg/kg then compound 6 mg/kg): developed normally
enhancement of telomerase activity in RPE cells [7]: 30 fold

Cc1ccc(C(C)(c2ccc(C)cc2)c2ccc(C)cc2)cc1 [Compound 22]
Lifes pan ext. % [1]: 21%

CC(c1ccccc1)(c1ccc(-c2cccc3ccccc23)cc1)c1ccc(C2c3ccccc3Oc3ccccc32)cc1 (centres unmarked) [Compound 33]
Lifes pan ext. % [1]: −26%

O=P(c1ccc(O)cc1)(c1ccc(O)cc1)c1ccc(O)cc1 [Compound 61]
Lifespan extension (%) [1]: 30%
Lifespan % ([1]; table of scaffold drawing 35): 30%

From patent publication US9670139B2, “Telomerase activating compounds and methods of use thereof” (BEN-GURION UNIVERSITY OF THE NEGEV RESEARCH AND DEVELOPMENT …, priority 2007, dated 2017)
